Laboratory results taken from patent US20120053053A1, “PYRIMIDINE DERIVATIVES AND THEIR USE AS HERBICIDES” (SYNGENTA CROP PROTECTION, LLC, priority 2009, published 2012).

What was measured:
Format in all cases: in vivo
[1] = system: Echinochloa crus-galli (ECHCG); test: Post-emergence biological efficacy (percentage damage); conditions: Echinochloa crus-galli, 312 h, dose 1,000 g/ha, evaluated after 13 days, 100=total damage, 0=no damage
Procedure, shortened: (§1)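 Post-emergence spray, 250 or 1000 g/ha, acetone/water 50:50 + 0.5% Tween 20, on 8-day-old potted plants; glasshouse 24/16 °C, 14 h light, 65% RH, watered twice daily; % damage read at 13 d.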

[2] = system: Solanum nigrum (SOLNI); test: as above; conditions: Solanum nigrum, 312 h, dose 1,000 g/ha, evaluated after 13 days, 100=total damage, 0=no damage
Procedure, shortened: as §1

[3] = system: Setaria faberi (SETFA); test: as above; conditions: Setaria faberi, 312 h, dose 1,000 g/ha, evaluated after 13 days, 100=total damage, 0=no damage
Procedure, shortened: as §1

[4] = system: Amaranthus retoflexus (AMARE); test: as above; conditions: Amaranthus retroflexus, 312 h, dose 1,000 g/ha, evaluated after 13 days, 100=total damage, 0=no damage
Procedure, shortened: as §1

[5] = system: Alopecurus myosuroides (ALOMY); test: as above; conditions: Alopecurus myosuroides, 312 h, dose 1,000 g/ha, evaluated after 13 days, 100=total damage, 0=no damage
Procedure, shortened: as §1

[6] = system: Ipomea hederaceae (IPOHE); test: as above; conditions: Ipomoea hederacea, 312 h, dose 1,000 g/ha, evaluated after 13 days, 100=total damage, 0=no damage
Procedure, shortened: as §1

[7] = system: Echinochloa crus-galli (ECHCG); test: Pre-emergence biological efficacy (percentage damage); conditions: Echinochloa crus-galli, 312 h, dose 1,000 g/ha, evaluated after 13 days, 100=total damage, 0=no damage
Procedure, shortened: (§2)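 Visual injury on a 0–100 scale was recorded 13 days after a spray giving 250 or 1000 g/ha of compound, applied one day post-sowing.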

[8] = system: Solanum nigrum (SOLNI); test: as above; conditions: Solanum nigrum, 312 h, dose 1,000 g/ha, evaluated after 13 days, 100=total damage, 0=no damage
Procedure, shortened: as §2

[9] = system: Setaria faberi (SETFA); test: as above; conditions: Setaria faberi, 312 h, dose 1,000 g/ha, evaluated after 13 days, 100=total damage, 0=no damage
Procedure, shortened: as §2

[10] = system: Amaranthus retoflexus (AMARE); test: as above; conditions: Amaranthus retroflexus, 312 h, dose 1,000 g/ha, evaluated after 13 days, 100=total damage, 0=no damage
Procedure, shortened: as §2

[11] = system: Alopecurus myosuroides (ALOMY); test: as above; conditions: Alopecurus myosuroides, 312 h, dose 1,000 g/ha, evaluated after 13 days, 100=total damage, 0=no damage
Procedure, shortened: as §2

[12] = system: Ipomea hederaceae (IPOHE); test: as above; conditions: Ipomoea hederacea, 312 h, dose 1,000 g/ha, evaluated after 13 days, 100=total damage, 0=no damage
Procedure, shortened: as §2

SMILES	pest or weed control at 1000 g/ha [1] [%]	pest or weed control at 1000 g/ha [2] [%]	pest or weed control at 1000 g/ha [3] [%]	pest or weed control at 1000 g/ha [4] [%]	pest or weed control at 1000 g/ha [5] [%]	pest or weed control at 1000 g/ha [6] [%]	pest or weed control at 1000 g/ha [7] [%]	pest or weed control at 1000 g/ha [8] [%]	pest or weed control at 1000 g/ha [9] [%]	pest or weed control at 1000 g/ha [10] [%]	pest or weed control at 1000 g/ha [11] [%]	pest or weed control at 1000 g/ha [12] [%]
C=Cc1c(N)nc(-c2ccc(Cl)c(N(C)C)c2F)nc1C(=O)OCC(CC)CCCC (stereo not drawn) [Compound 33-393, 4-Amino-2-(4-chloro-3-dimethylamino-2-fluorophenyl)-5-ethenyl-6-(2-ethylhexyloxy) carbonyl-pyrimidine]	20	70	0	70	0	70	0	20	0	20	0	0
C=Cc1c(N)nc(-c2ccc(Cl)c(N(C)C)c2F)nc1C(=O)OC(C)c1ccccc1 (stereo not drawn) [Compound 33-394, 4-Amino-2-(4-chloro-3-dimethylamino-2-fluorophenyl)-5-ethenyl-6-(1-phenyl-ethoxy)carbonyl-pyrimidine]	60	80	50	100	30	30	30	40	30	40	20	0
C=CCOC(=O)c1nc(-c2ccc(Cl)c(N(C)C)c2F)nc(N)c1C=C [Compound 33-395, 4-Amino-2-(4-chloro-3-dimethylamino-2-fluorophenyl)-5-ethenyl-6-(prop-2-enyloxy)carbonyl-pyrimidine]	100	100	100	100	70	30	90	100	80	100	60	30
C=Cc1c(N)nc(-c2ccc(Cl)c(N(C)C)c2F)nc1C(=O)OCCOCC [Compound 33-396, 4-Amino-2-(4-chloro-3-dimethylamino-2-fluorophenyl)-5-ethenyl-6-(2-ethoxy-ethoxy)carbonyl-pyrimidine]	100	90	90	100	70	60	90	90	80	100	70	50
C=Cc1c(N)nc(-c2ccc(Cl)c(N(C)C)c2F)nc1C(=O)OCCOCCCC [Compound 33-397]	90	90	90	100	80	80	100	100	90	100	80	50
C=Cc1c(N)nc(-c2ccc(F)cc2)nc1C(=O)OC [Compound 41-61, 4-Amino-5-ethenyl-2-(4-fluorophenyl)-6-methoxycarbonyl-pyrimidine]	10	90	10	100	20	60	10	0	10	100	20	40
